Laboratory results reported in US20220218765A1, “ASSISTANT AGENT FOR ASSISTING INTRODUCTION INTO LIVING BODY AND METHOD OF UTILIZING THE SAME” (SHINBIOSIS CORPORATION, priority 2019, published 2022).

Tested on: STZ-induced diabetes model mouse (STZ-mouse)
Test: Blood glucose level in STZ-induced diabetes model mouse (Test Example 4-1)
Format: in vivo, CD-1 (ICR) mice
Conditions: STZ-mice, Day 14 after the treatment
Experimental: The “complex containing an active substance” was injected into the intestine of a STZ-induced diabetes model mouse (STZ-mouse) together with the “assistant agent for assisting introduction into a living body”, and then measurement of a “change in plasma glucose (blood glucose level) (Test Example 4-1)” and “measurement of the plasma insulin level (Test Example 4-2)” at the end of the treatment were performed.
“Compositions containing an active substance” below were prepared by mixing the above-described “active substance complex (Bio3 formulation)” with the respective “assistant agents for assisting introduction into a living body” above, and were then used in the experiments.
CD-1 (ICR) mice (male, 4 weeks old) purchased from Charles River Japan were preliminarily kept for 1 week before experiment.
Procedure for Producing Disease Model Mice STZ (40 mg/kg) prepared in a citrate buffer (100 mmol/L, pH 4.5) was intravenously administered (iv) to the tail veins of the above-mentioned mice.
One week after, blood was collected from ophthalmic venous plexus of the mice with a capillary, and the mice were divided into the following four groups (six mice per group) based on the measured blood glucose levels such that the average blood glucose levels of the groups were equal to one another as follows. […]

With insulin the “blood glucose level as ratio to the non-treated control group” value was “up to 60%”.
